In assay [1] the target is PTPN11-E76K mutant enzyme (Homo sapiens (Human), UniProt Q06124, E76K). Put plainly: PTPN11 Enzymatic Assay (DiFMUP phosphatase activity). The format is biochemical. The settings on record: full length PTPN11-E76K mutant enzyme 250 pM, DiFMUP 50 μM, 30 min preincubation; read-out: PTPN11-E76K Avg IC50. The protocol: Reaction was initiated by addition of DiFMUP (50 μM) at room temperature in 384-well black plate with a final reaction volume of 20 uL in assay buffer. […] Dose-response curves were analyzed using IC50 regression curve fitting (GeneData Screener). Curves were normalized to a high controls without inhibitor, and low controls without enzyme.
Chain of PTPN11-E76K mutant enzyme (Q06124 whole entry E76K): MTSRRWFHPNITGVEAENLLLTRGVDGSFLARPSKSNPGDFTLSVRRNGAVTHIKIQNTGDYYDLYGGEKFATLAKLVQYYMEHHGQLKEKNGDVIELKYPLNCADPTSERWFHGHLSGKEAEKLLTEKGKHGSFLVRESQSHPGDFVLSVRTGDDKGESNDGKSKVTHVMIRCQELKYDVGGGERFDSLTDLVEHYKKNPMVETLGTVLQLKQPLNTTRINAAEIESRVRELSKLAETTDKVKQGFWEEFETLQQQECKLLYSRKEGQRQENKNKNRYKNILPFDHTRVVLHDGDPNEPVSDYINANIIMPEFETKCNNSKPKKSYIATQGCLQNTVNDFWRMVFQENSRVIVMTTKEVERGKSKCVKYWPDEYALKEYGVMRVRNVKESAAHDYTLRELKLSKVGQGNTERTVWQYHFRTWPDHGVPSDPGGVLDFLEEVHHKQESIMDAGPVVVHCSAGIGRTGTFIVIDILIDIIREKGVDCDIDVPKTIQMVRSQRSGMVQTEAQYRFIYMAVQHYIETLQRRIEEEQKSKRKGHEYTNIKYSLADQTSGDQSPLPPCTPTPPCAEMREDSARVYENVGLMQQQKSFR

Assay [2] concerns Phospho-ERK levels in KYSE-520 cells. In words: pERK AlphaScreen Protocol. The settings on record: Homo sapiens, KYSE-520, 2 h, read-out: PERK Avg IC50. The format is cell-based. The protocol: KYSE-520 cells (10 k cells/well) were grown in 384-well plate in 20 uL of medium (RPMI-1640, without phenol red, containing 10% FBS) at 37° C. with 5% CO2 overnight. DMSO (control) or increasing concentrations of compounds were diluted in medium, added to the 384-well plate (5 uL/well, final DMSO concentration of 1%), and cells were then incubated with compounds for 2 hr. Phospho-ERK levels were measured using phospho-ERK1/2 AlphaScreen SureFire (PerkinElmer, TGRESB10K) following manufacturer's recommendations. Dose-response curves were analyzed using IC50 regression curve fitting (GeneData Screener). Curves were normalized to a high control without inhibitor (DMSO only), and low control (1 μM selumetinib).
For orientation: Alpha assays give light when donor and acceptor beads are brought close together.

Setting [3] is: KYSE-520 cells, 2 hr compound incubation, phospho-ERK1/2 AlphaScreen SureFire.

In patent US10280171B2, “Heterocyclic inhibitors of PTPN11” (priority 2016, dated 2019) one finds IC50 data, which are given here for 30 molecules.

Structures can show the parent of a compound that is named as a salt. Where two headings read alike, the source gives them in different places.

Turning to `CC1(CN)CCN(c2cnc3c(-c4cc(Cl)cc(Cl)c4)n[nH]c3n2)CC1` [Example 11, (1-(3-(3,5-dichloro-phenyl)-1H-pyrazolo[3,4-b]-pyrazin-6-yl)-4-methylpiperidin-4-yl) methanamine], the results for the IC50 in assay [1] and in assay [2] (setting [3]) were 632 nM and 1170 nM, respectively.
On the same counts, the results for `CC1(N)CCN(c2cnc3c(-c4cc(Cl)cc(Cl)c4)n[nH]c3n2)CC1` [Example 12, 1-(3-(3,5-dichloro-phenyl)-1H-pyrazolo[3,4-b]-pyrazin-6-yl)-4-methylpiperidin-4-amine] are 404 nM and 623 nM.
On the same counts, the results for `CC1(CN)CCN(c2cnc3c(-c4ccc(Cl)c(Cl)c4)n[nH]c3n2)CC1` [Example 13, (1-(3-(3,4-dichloro-phenyl)-1H-pyrazolo[3,4-b]-pyrazin-6-yl)-4-methylpiperidin-4-yl) methanamine] are 158 nM and 562 nM.
On to `CC1(CN)CCN(c2cnc3c(-c4ccc(F)c(Cl)c4)n[nH]c3n2)CC1` [Example 14, (1-(3-(3-Chloro-4-fluorophenyl)-1H-pyrazolo[3,4-b]-pyrazin-6-yl)-4-methylpiperidin-4-yl) methanamine], for which the IC50 (as a rule, the concentration needed to halve the response being measured) in assay [1] was 521 nM; in assay [2] (setting [3]) it was 569 nM.
Regarding `CC1(N)CCN(c2cnc3c(-c4ccc(Cl)cc4)n[nH]c3n2)CC1` [Example 15, 1-(3-(4-Chlorophenyl)-1H-pyrazolo[3,4-b]pyrazin-6-yl)-4-methylpiperidin-4-amine], the IC50 in assay [1] was determined as 140 nM; in assay [2] (setting [3]), 103 nM.
For the molecule `CC1(CN)CCN(c2cnc3c(-c4ccc(Cl)cc4)n[nH]c3n2)CC1` [Example 16], the figures for the IC50 in assay [1] and in assay [2] (setting [3]) were 169 nM and 309 nM, respectively.
As to `N[C@@H]1CCCC12CCN(c1cnc3c(-c4ccc(Cl)cc4)n[nH]c3n1)CC2` [Example 17, (R)-8-(3-(4-chloro-phenyl)-1H-pyrazolo[3,4-b]-pyrazin-6-yl)-8-aza-spiro[4.5]decan-1-amine], the IC50 came out at 118 nM in assay [1] and 82 nM in assay [2] (setting [3]).
For `CC1(N)CCN(c2cnc3c(-c4ccc(Cl)c(Cl)c4)n[nH]c3n2)CC1` [Example 18, 1-(3-(3,4-dichloro-phenyl)-1H-pyrazolo[3,4-b]-pyrazin-6-yl)-4-methylpiperidin-4-amine], the IC50 in assay [1] turned out to be 141 nM; in assay [2] (setting [3]) it was 667 nM.
With `CC1(N)CCN(c2cnc3c(-c4ccc(F)c(Cl)c4)n[nH]c3n2)CC1` [Example 19, 1-(3-(3-Chloro-4-fluorophenyl)-1H-pyrazolo[3,4-b]-pyrazin-6-yl)-4-methylpiperidin-4-amine], the IC50 in assay [1] turned out to be 510 nM; in assay [2] (setting [3]) it was 534 nM.
As to `CC1(N)CCN(c2cnc3c(-c4ccccc4Cl)n[nH]c3n2)CC1` [Example 20, 1-(3-(2-Chlorophenyl)-1H-pyrazolo[3,4-b]pyrazin-6-yl)-4-methylpiperidin-4-amine], the results for the concentration for half-maximal inhibition (IC50) in assay [1] and in assay [2] (setting [3]) were 326 nM and 158 nM, respectively.
`CC1(N)CCN(c2cnc3c(-c4cccc(C(F)(F)F)c4)n[nH]c3n2)CC1` [Example 21, 4-Methyl-1-(3-(3-(trifluoromethyl)phenyl)-1H-pyrazolo[3,4-b]pyrazin-6-yl)piperidin-4-amine]: the IC50 is 956 nM in assay [1] and 620 nM in assay [2] (setting [3]).
As to `CC1(CN)CCN(c2cnc3c(-c4cccc(C(F)(F)F)c4)n[nH]c3n2)CC1` [Example 22, (4-methyl-1-(3-(3-(trifluoromethyl)-phenyl)-1H-pyrazolo[3,4-b]pyrazin-6-yl)-piperidin-4-yl)-methanamine], the IC50 was 1750 nM in assay [1] and 976 nM in assay [2] (setting [3]).
As to `CC1(N)CCN(c2cnc3c(-c4cccnc4Cl)n[nH]c3n2)CC1` [Example 23, 1-(3-(2-chloro-pyridin-3-yl)-1H-pyrazolo[3,4-b]-pyrazin-6-yl)-4-methyl-piperidin-4-amine], the figures for the IC50 in assay [1] and in assay [2] (setting [3]) were 1820 nM and 428 nM, respectively.
In the same order, the values of `CC1(N)CCN(c2cnc3c(-c4cccc(F)c4Cl)n[nH]c3n2)CC1` [Example 24, 1-(3-(2-chloro-3-fluorophenyl)-1H-pyrazolo[3,4-b]-pyrazin-6-yl)-4-methyl-piperidin-4-amine] are 204 nM and 142 nM.
In the same order, the values of `CC1(CN)CCN(c2cnc3c(-c4cccc(Cl)c4F)n[nH]c3n2)CC1` [Example 25, (1-(3-(3-Chloro-2-fluorophenyl)-1H-pyrazolo[3,4-b]pyrazin-6-yl)-4-methylpiperidin-4-yl)-methanamine] are 101 nM and 47 nM.
With `COc1cccc(-c2n[nH]c3nc(N4CCC(C)(CN)CC4)cnc23)c1Cl` [Example 27, (1-(3-(2-chloro-3-methoxy phenyl)-1H-pyrazolo[3,4-b]pyrazin-6-yl)-4-methylpiperidin-4-yl) methanamine], the IC50 in assay [1] is 80 nM; in assay [2] (setting [3]) it was 55 nM.
`Cc1c(Cl)cccc1-c1n[nH]c2nc(N3CCC(C)(CN)CC3)cnc12` [Example 28, (1-(3-(3-chloro-2-methylphenyl)-1H-pyrazolo[3,4-b]-pyrazin-6-yl)-4-methylpiperidin-4-yl) methanamine]: the results for the IC50 in assay [1] and in assay [2] (setting [3]) were 142 nM and 190 nM, respectively.
As for `CC1(CN)CCN(c2cnc3c(-c4ccccc4Cl)n[nH]c3n2)CC1` [Example 29], the half-maximal inhibitory concentration (IC50) in assay [1] is 178 nM; in assay [2] (setting [3]), 87 nM.
For `Cc1ncccc1-c1n[nH]c2nc(N3CCC(C)(CN)CC3)cnc12` [Example 30, (4-methyl-1-(3-(2-methylpyridin-3-yl)-1H-pyrazolo[3,4-b]pyrazin-6-yl)-piperidin-4-yl) methanamine], the IC50 in assay [1] was 2510 nM; in assay [2] (setting [3]) it was 1600 nM.
Consider `CC1(CN)CCN(c2cnc3c(-c4ccncc4Cl)n[nH]c3n2)CC1` [Example 31, (1-(3-(3-chloro-pyridin-4-yl)-1H-pyrazolo[3,4-b]-pyrazin-6-yl)-4-methylpiperidin-4-yl) methanamine], for which the values for the IC50 in assay [1] and in assay [2] (setting [3]) were 929 nM and 710 nM, respectively.
On the same counts, the results for `COc1cc(-c2n[nH]c3nc(N4CCC(C)(CN)CC4)cnc23)ccc1Cl` [Example 33, (1-(3-(4-Chloro-3-methoxyphenyl)-1H-pyrazolo[3,4-b]pyrazin-6-yl)-4-methylpiperidin-4-yl)methanamine] are 72 nM and 96 nM.
On the same counts, the results for `COc1cc(Cl)cc(-c2n[nH]c3nc(N4CCC(C)(CN)CC4)cnc23)c1` [Example 35, (1-(3-(3-chloro-5-methoxyphenyl)-1H-pyrazolo[3,4-b]-pyrazin-6-yl)-4-methylpiperidin-4-yl) methanamine] are 304 nM and 704 nM.
Regarding `CC1(CN)CCN(c2cnc3c(-c4cccnc4Cl)n[nH]c3n2)CC1` [Example 36, (1-(3-(2-chloro-pyridin-3-yl)-1H-pyrazolo[3,4-b]-pyrazin-6-yl)-4-methylpiperidin-4-yl) methanamine], the results for the IC50 in assay [1] and in assay [2] (setting [3]) were 967 nM and 320 nM, respectively.
Consider `NCC1(O)CCN(c2cnc3c(-c4cccc(F)c4Cl)n[nH]c3n2)CC1` [Example 37, 4-(Aminomethyl)-1-(3-(2-chloro-3-fluorophenyl)-1H-pyrazolo[3,4-b]pyrazin-6-yl)-piperidin-4-ol], for which the IC50 in assay [1] was 623 nM; in assay [2] (setting [3]), 223 nM.
In the case of `N[C@@H]1COCC12CCN(c1cnc3c(-c4ccccc4Cl)n[nH]c3n1)CC2` [Example 39, (S)-8-(3-(2-chloro-phenyl)-1H-pyrazolo[3,4-b]-pyrazin-6-yl)-2-oxa-8-azaspiro[4.5]-decan-4-amine], the IC50 is 158 nM in assay [1] and 103 nM in assay [2] (setting [3]).
For the molecule `N[C@@H]1COCC12CCN(c1cnc3c(-c4c(F)cccc4Cl)n[nH]c3n1)CC2` [Example 40, (4S)-8-(3-(2-Chloro-6-fluorophenyl)-1H-pyrazolo[3,4-b]-pyrazin-6-yl)-2-oxa-8-azaspiro[4.5]-decan-4-amine], the results for the IC50 in assay [1] and in assay [2] (setting [3]) were 203 nM and 186 nM, respectively.
For `N[C@@H]1COCC12CCN(c1cnc3c(-c4cccnc4Cl)n[nH]c3n1)CC2` [Example 41, (S)-8-(3-(2-chloro-pyridin-3-yl)-1H-pyrazolo[3,4-b]-pyrazin-6-yl)-2-oxa-8-azaspiro[4.5]-decan-4-amine trifluoroacetate], the IC50 in assay [1] turned out to be 966 nM; in assay [2], 394 nM.
Regarding `N[C@@H]1CCCC12CCN(c1cnc3c(-c4cccc(Cl)c4)n[nH]c3n1)CC2` [Example 44, (R)-8-(3-(3-chloro-phenyl)-1H-pyrazolo[3,4-b]-pyrazin-6-yl)-8-aza-spiro[4.5]-decan-1-amine], the values for the IC50 in assay [1] and in assay [2] (setting [3]) were 429 nM and 304 nM, respectively.
As to `N[C@@H]1CCCC12CCN(c1cnc3c(-c4cc(Cl)cc(Cl)c4)n[nH]c3n1)CC2` [Example 45, (R)-8-(3-(3,5-dichloro-phenyl)-1H-pyrazolo[3,4-b]-pyrazin-6-yl)-8-aza-spiro[4.5]decan-1-amine], the IC50 in assay [1] amounted to 355 nM; in assay [2] (setting [3]) it was 1420 nM.
Consider `N[C@@H]1CCCC12CCN(c1cnc3c(-c4ccc(F)c(Cl)c4)n[nH]c3n1)CC2` [Example 47, (R)-8-(3-(3-chloro-4-fluorophenyl)-1H-pyrazolo[3,4-b]-pyrazin-6-yl)-8-aza-spiro[4.5]decan-1-amine], for which the IC50 in assay [1] was found to be 493 nM; in assay [2] (setting [3]), 343 nM.
